Experiments:
Format in all cases: cell-based, human
MCF-7 Nod2 cells [1] = assay: Apoptosis (PI, flow cytometry) in MCF-7 cells over-expressing Nod2; settings: 20 ug/ml plus CHX, 48 h
Experimental: (§1) In FIG. 5A, MCF-7 Blasto, MCF-7 Nod1 and MCF-7 Nod2 were treated with the NOD1 ligand γTriDAP or the Nod2 ligand muramyl dipeptide (MDP)(20 ug/ml each) in the presence or absence of CHX for 48 h. Cells were then incubated with PI and apoptotic cell death was measured by flow cytometry. […] In FIG. 5B, expression of NOD1 and NOD2 was confirmed by Western blot analysis using anti-Myc antibodies for detection of the recombinant proteins. […] MCF-7 Blasto, MCF-7 Nod1 and MCF-7 Nod2 cells were stimulated with γTriDAP or MDP in the presence or absence of CHX (0.5 ug/ml) for 24 h. Cell supernatants were then harvested and assayed for IL-8 secretion.
Cell viability assays. Propidium iodide exclusion assay: Cells were stimulated as indicated for 2 days. […] The extent of cell death was analyzed with a FACSCalibur flow cytometer (Becton Dickinson, Mountain View, Calif.). […] Cells were fixed in 4% paraformaldehyde and examined by fluorescence microscopy.
(§2) Experiments were also performed to ascertain whether activation of Nod2 by its specific activator, muramyl dipeptide (MDP), would initiate apoptosis in parental MCF-7 cells or in MCF-7 cells over-expressing Nod2 (MCF-7 Nod2). Thus, γTriDAP or MDP were added to each of these lines and apoptosis (FIG. 5A) and IL-8 production (FIG. 5C) were measured. […]

MCF-7 Nod2 cells [2] = assay: IL-8 secretion (ELISA) in MCF-7 Nod2 cells; settings: 24 h
Experimental: as §1
IL-8 ELISA. Concentrations of IL-8 in the culture supernatants of transfected HeLa cells were measured by ELISA using 96-well Immunlon plates (Dynatech Laboratories, Chantilly, Va.). ELISA was performed using the mAb MAB208 for capture and a biotinylated polyclonal rabbit anti-human IL-8 Ab (R&D Systems, Minneapolis, Minn.) followed by streptavidin HRP for detection.
as §2

[3] = tested on: MCF-7 C20 cells with Nod2; assay: Apoptosis in MCF-7 C20 cells complemented with Nod2; settings: MCF-7 C20 complemented with Nod2 (data not shown)
[4] = tested on: MCF-7 cells expressing wild type RIP2, RIP2 KD or RIP2ΔCARD; assay: Apoptosis (PI, flow cytometry) in MCF-7 cells stably expressing RIP2 constructs; settings: 20 μg/ml, CHX 3 μg/ml, 48 hr
Experimental: FIG. 13A-D illustrate that RIP2 is an important component of the Nod1 apoptotic pathway. […] MCF-7 cells were stably transfected with Myc-Nod1, Myc-RIP2 (wild type), Myc-RIP2 KD, and Myc-RIP2 ΔCARD. Test cells were then treated with γTriDAP, αTriDAP and MDP (20 μg/ml each) in the presence or absence of CHX (3 μg/ml) for 48 hr, while control cells were not treated with these agents. Cells were then incubated with propidium iodide (PI) and apoptotic cell death was measured by flow cytometry. FIG. 13B illustrates the effect of TNF upon apoptosis in the same MCF-7 cell lines described in FIG. 13A. These cells lines were treated with TNF (10 ng/ml) for 18 hr and apoptotic cell death was assessed as described for FIG. 13A. TNF increased apoptosis in all the cell lines tested. […] Cells were incubated in the presence of increasing concentrations of γTriDAP or MDP in the presence of CHX for 48 hr and apoptotic cell death was assessed as described for FIG. 13A. FIG. 13D illustrates IL-8 secretion by MCF-7 Blasto, MCF-7 Nod1 and MCF-7 RIP2 wild type cells after stimulation with γTriDAP in the presence of CHX ([…]) or TNF. […]
Cell viability assays. […] The extent of cell death was analyzed with a FACSCalibur flow cytometer (Becton Dickinson, Mountain View, Calif.). […] Cells were fixed in 4% paraformaldehyde and examined by fluorescence microscopy. […]

## muramyl dipeptide [MDP]
MCF-7 Nod2 cells [1]
  apoptosis: did not undergo increased apoptosis
MCF-7 Nod2 cells [2]
  IL-8 secretion: did result in IL-8 secretion
[3]
  apoptosis: did not result in apoptosis
[4]; cells expressing RIP2 KD
  apoptosis: effective at inducing high levels of apoptosis
[4]; cells expressing either wild type RIP2 or RIP2ΔCARD
  apoptosis: not

From patent US20090028795A1, “NOD1 as an Anti-Tumor Agent” (priority 2005, published 2009)
